Data published in paper PMC4445002, “Efficient inhibition of tumor angiogenesis and growth by a synthetic peptide blocking S100A4-methionine aminopeptidase 2 interaction” (Molecular Therapy. Methods & Clinical Development, 2015).

Columns and labels:
[1] = tested on: NMIIA (Ser1943) in MSS31 cells; test: NMIIA Ser1943 phosphorylation by western blot; assay type: cell-based, mouse; details: 5 μg/well, 18 hours
Procedure: Figure 6 Stimulation of NMIIA phosphorylation and filament assembly by the NBD peptide. MSS31 cells incubated with atelocollagen alone or the peptide/atelocollagen complexes were subjected to western blot analysis and immunofluorescent staining. (a) Western blot analysis of NMIIA phosphorylation. Total cellular proteins were subjected to immunoblot analysis. The band intensity of p-NMIIA relative to that of total NMIIA was measured using ImageJ software and normalized to control cells. (b) NMIIA assembly. MSS31 cells were simultaneously incubated with rabbit polyclonal anti-S100A4 antibody and mouse monoclonal anti-NMIIA antibody followed by Alexa Fluor 488-conjugated goat antirabbit IgG and Alexa Fluor 594-conjugated goat antimouse IgG. Nuclei were stained with DAPI. Scale bars: 50 μm. (c) Blockade of S100A4-NMIIA interaction by the NBD peptide. MSS31 cells were immunostained as in a. White arrows and yellow arrows indicate colocalized areas and independently localized areas of S100A4 and NMIIA, respectively. Bars: 20 μm. TEXT PRINTED IN THE PICTURE: (a) NBD: p-NMIIA/total NMIIA: 1.78 | (a) CBD: p-NMIIA/total NMIIA: 0.66 […]

[2] = tested on: new blood vessel formation in BALB/c nude mice; test: Directed in vivo angiogenesis assay (DIVAA) in nude mice; design: species or system mouse; details: angioreactors with Afs (bFGF, VEGF, heparin), peptide (1 mg/ml) with atelocollagen, s.c. implant, 15 days, n = 3; NBD P < 0.01
[3] = tested on: PC-3M-Luc tumors; test: Tumor growth by bioluminescence imaging of PC-3M-Luc xenografts; assay type: in vivo, human tumor in athymic nude mice
Procedure: Figure 5 Inhibition of tumor angiogenesis and tumor growth of human prostate cancer cells by the NBD peptide. The peptide/atelocollagen was injected into the subcutaneous tumors on day 3 after inoculation of PC-3M-Luc cells. Atelocollagen alone was injected as controls. (a) Microvessel density. Anti-CD31-antibody staining was used to detect angiogenesis. Arrows show microvessels. The images were digitally processed for assessment of angiogenesis. (b) Inhibition of tumor growth by peptide delivery in vivo. Representative bioluminescent images of nude are shown. L, tumors treated with the CBD peptide; R, tumors treated with the NBD peptide. (c) The photon count of the bioluminescence is shown. […]
Animal experiments were performed in compliance with the guidelines of the Institute for Laboratory Animal Research at the National Cancer Center Research Institute. […] Ten minutes later, photons from animal whole bodies were counted using the IVIS imaging system (Caliper Life Sciences) according to the manufacturer’s instructions. Data were analyzed by living image 2.50 software (Caliper Life Sciences).
The peptide/atelocollagen complex was prepared by mixing equal volumes of atelocollagen (0.1% in PBS at pH 7.4) and peptide solution (1 mg/ml) with rotation for 30 minutes at 4 °C. […] Mice were monitored by bioluminescent imaging 14 days after the injection of the peptide/atelocollagen complex. […]

[4] = tested on: FAK (Tyr397) in MSS31 cells; test: FAK Tyr397 phosphorylation by western blot; assay type: cell-based, mouse; details: vs control and CBD peptide-treated cells; 5 μg/well, 18 hours
Procedure: Figure 7 Stimulation of the formation of focal contacts by the NBD peptide. MSS31 cells incubated with atelocollagen alone or the peptide/atelocollagen complexes were subjected to immunofluorescent staining and western blot analysis. (a) Formation of focal adhesions. The cells were immunostained with antivinculin or anti-integrin β1 antibody followed by Alexa Fluor 488-conjugated secondary antibody. F-actin was visualized with Atto 647N-Phalloidin. Nuclei were stained with DAPI. Scale bars: 50 μm. (b) Western blot analysis of focal adhesion proteins. Total cellular proteins were subjected to immunoblot analysis. (c) Relative expression level of vinculin (VCN), integrin β1 (ITGβ1) and p-FAK. The band intensity of VCN and ITGβ1 and p-FAK relative to that of β-actin and total FAK, respectively, was measured using ImageJ software and normalized to control cells.
MSS31 cells cultured in six-well plates were incubated with 5 μg/well of the NBD or the CBD peptide/atelocollagen complex or atelocollagen alone for 18 hours and were lysed in M-PER Mammarian Protein Extraction Reagent (Thermo Fisher Scientific, Waltham, MA) containing complete, EDTA-free, EASYpack (Roche Applied Science, Penzberg, Upper Bavaria, Germany) and Halt Phosphatase Inhibitor Cocktail (Thermo Fisher Scientific). The lysates was used for immunoblot analysis. […]

Substance: NBD: N-terminal 39 amino acid sequence of SBD, from Arg170 to Ileu208; corresponding to MetAP2 (170–208) (REAAEAHRQVRKYVMSWIKPGMTMIEICEKLEDCSRKLI)
- Ser1943 phosphorylation of NMIIA ([1]; atelocollagen complex): enhanced Ser1943 phosphorylation of NMIIA
- p-NMIIA/total NMIIA ([1]; band intensity, normalized to control cells (atelocollagen alone)): 1.78
- in vivo angiogenesis (DIVAA) [2]: potently suppressed the angiogenic factors-induced angiogenesis
- vascularity and tumor regression ([3]; single intra-tumor administration, human prostate cancer xenografts (abstract)): significantly reduced vascularity, resulting in tumor regression
- tumor growth ([3]; single intratumoral injection of 100 μg peptide in atelocollagen, bioluminescence on day 14, vs atelocollagen alone and CBD, n = 7, P < 0.05): significant inhibition of the growth of tumors
- phosphorylation of Tyr397 of FAK [4]: no significant increase in the phosphorylation of Tyr397 of FAK
